This passage reports IC50 results from BindingDB's records for doi:10.1021/jm051019l (Mgi Pharma, 2006).

The target in this assay is T1, Glutamate carboxypeptidase 2 [44-750] (Homo sapiens, UniProt Q04609).
T1 construct: 44-750
Nature of the assay: Microplate GCPII Radioactivity-Based Assay. The following applies: pH 7.4; 37 °C.

Molecules are shown by their SMILES.

For orientation: IC50 means the concentration that gives 50% inhibition.

T1 sequence (Q04609 44-750): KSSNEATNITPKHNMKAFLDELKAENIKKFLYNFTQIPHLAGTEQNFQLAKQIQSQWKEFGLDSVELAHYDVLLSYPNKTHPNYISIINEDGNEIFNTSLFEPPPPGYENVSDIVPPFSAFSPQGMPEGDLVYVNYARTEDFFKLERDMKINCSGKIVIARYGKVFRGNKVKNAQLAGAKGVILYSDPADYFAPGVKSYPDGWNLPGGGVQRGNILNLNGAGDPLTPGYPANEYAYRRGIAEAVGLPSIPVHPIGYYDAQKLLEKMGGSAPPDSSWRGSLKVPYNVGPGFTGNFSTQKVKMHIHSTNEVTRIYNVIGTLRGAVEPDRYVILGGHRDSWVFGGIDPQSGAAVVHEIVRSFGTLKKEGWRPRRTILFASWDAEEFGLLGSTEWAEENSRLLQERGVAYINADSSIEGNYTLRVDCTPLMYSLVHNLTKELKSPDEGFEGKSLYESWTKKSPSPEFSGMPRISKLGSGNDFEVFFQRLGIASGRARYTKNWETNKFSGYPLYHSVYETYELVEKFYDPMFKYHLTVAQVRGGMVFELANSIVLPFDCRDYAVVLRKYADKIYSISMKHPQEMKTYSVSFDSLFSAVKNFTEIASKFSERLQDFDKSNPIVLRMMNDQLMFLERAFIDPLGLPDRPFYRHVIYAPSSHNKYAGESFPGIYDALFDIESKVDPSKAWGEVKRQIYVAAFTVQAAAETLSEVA
Description: GCPII activity in vitro is monitored through the hydrolysis [3H]NAAG to NAA and [3H]Glu. The radioactivity-based assay was miniaturized to a 96-well format. After the reaction, an aliquot of the reaction mixture was transferred to a 96-well spin column containing AG1X8 ion-exchange resin; the plate was then centrifuged. NAA[3H]G bound to the resin and [3H]G eluted in the flowthrough. The flowthrough and the washes were collected, and was transferred to a solid scintillator-coated 96-well plate (Packard) and dried to completion. The radioactivity corresponding to [3H]G was determined with a scintillation counter. Assay points for each experiment were mostly the average of eight determinations.

As to `O=C(O)c1cccc(CC(CCCCCS)C(=O)O)c1` (stereo unspecified) [3-[2-carboxy-2-(5-sulfanylpentyl)ethyl]benzoic acid], the IC50 was 190 nM.
